In US20220073536A1 (Rigel Pharmaceuticals, Inc., priority 2003, published 2022) one finds IC50 data, which are given here for 15 molecules.

In experiment [1] the test system is cultured human mast cells (CHMC). Kind of experiment: CHMC low cell density ionomycin activation: tryptase assay. Type of experiment: cell-based. The settings on record: low cell density, 3 pt, read-out: LD Tryptase, CHMC, Iono, 3 pt.
The test system is the same in experiment [2]. Kind of experiment: CHMC low cell density IgE activation: tryptase assay. It is filed as cell-based. The settings on record: low cell density, IgE activation. In outline: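 Anti-IgE-driven degranulation of cultured human mast cells at low density, 1000–1500 cells/well, was induced over 30 min at 37 °C. It was scored by supernatant tryptase activity on a fluorogenic substrate.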

[3] abbreviates: Homo sapiens, Mast cell, 3 pt, read-out: LD Tryptase, CHMC, IgE, 3 pt.
[4] abbreviates: Homo sapiens, Mast cell, 8 pt, read-out: LD Tryptase, CHMC, IgE, 8 pt.

The structures appear in SMILES notation.

For the molecule `CNC(=O)c1ccc(Nc2ncc(F)c(N(C)c3ccc4c(c3)OCCO4)n2)cc1Cl` [Compound 473, N2-[3-Chloro-4-(N-methylamino)carbonylphenyl]-N4-(3,4-ethylenedioxyphenyl)-5-fluoro-N4-methyl-2,4-pyrimidinediamine], the IC50 in experiment [1] (Homo sapiens, Mast cell) is above 10 µM; in experiment [2] (setting [3]), below 10 µM.

Turning to `CNC(=O)c1ccc(Nc2ncc(F)c(N(C)c3ccc(OC)c(OC)c3)n2)cc1Cl` [Compound 474, N2-[3-Chloro-4-(N-methylamino)carbonylphenyl]-N4-(3,4-dimethoxyphenyl)-5-fluoro-N4-methyl-2,4-pyrimidinediamine], the IC50 is above 10 µM in experiment [1] (Homo sapiens, Mast cell) and below 10 µM in experiment [2] (setting [3]).

With `CNC(=O)c1cc(Nc2nc(Nc3cc(OC)cc(OC)c3)ncc2F)ccc1Cl` [Compound 475, N4-[4-Chloro-3-(N-methylamino)carbonylphenyl]-N2-(3,5-dimethoxyphenyl)-5-fluoro-2,4-pyrimidinediamine], the IC50 in experiment [1] (Homo sapiens, Mast cell) is above 10 µM; in experiment [2] (setting [3]), below 10 µM; in experiment [2] (setting [4]), below 10 µM.

Regarding `CNC(=O)c1cc(Nc2nc(Nc3cc(C)cc(C)c3)ncc2F)ccc1Cl` [Compound 476, N4-[4-Chloro-3-(N-methylamino)carbonylphenyl]-N2-(3,5-dimethylphenyl)-5-fluoro-2,4-pyrimidinediamine], the IC50 in experiment [1] (Homo sapiens, Mast cell) was above 10 µM; in experiment [2] (setting [3]), below 10 µM; in experiment [2] (setting [4]), below 10 µM.

For `CNC(=O)COc1cccc(Nc2ncc(F)c(Nc3ccc(Cl)c(C(=O)NC)c3)n2)c1` [Compound 477, N4-[4-Chloro-3-(N-methylamino)carbonylphenyl]-5-fluoro-N2-[3-(N-methylamino)carbonylmethyleneoxyphenyl]-2,4-pyrimidinediamine], the IC50 is above 10 µM in experiment [1]; below 10 µM in experiment [2] (3 pt, read-out: LD Tryptase, CHMC, IgE, 3 pt); below 10 µM in experiment [2] (8 pt, read-out: LD Tryptase, CHMC, IgE, 8 pt).

On to `CNC(=O)c1ccc(Nc2ncc(F)c(Nc3ccc(Cl)c(C(=O)NC)c3)n2)cc1Cl` [Compound 478, N2-[3-Chloro-4-(N-methylamino)carbonylphenyl]-N4-[4-chloro-3-(N-methylamino)carbonylphenyl]-5-fluoro-2,4-pyrimidinediamine], for which the IC50 in experiment [1] (Homo sapiens, Mast cell) is above 10 µM; in experiment [2] (setting [3]), below 10 µM.

In the case of `CNC(=O)c1cc(Nc2ccnc(Nc3ccc4cc[nH]c4c3)n2)ccc1Cl` [Compound 479, N4-[4-Chloro-3-(N-methylamino)carbonylphenyl]-N2-(indol-6-yl)-2,4-pyrimidinediamine], the IC50 was above 10 µM in experiment [1] (Homo sapiens, Mast cell) and below 10 µM in experiment [2] (setting [3]).

For the molecule `COc1ncc(F)c(N(C)c2ccc3c(c2)OCCO3)n1` [Compound 480], the IC50 in experiment [1] (Homo sapiens, Mast cell) is above 10 µM; in experiment [2] (setting [3]) it was above 10 µM.

On to `CNC(=O)c1ccc(Nc2nc(Nc3cc(OC)cc(OC)c3)ncc2F)cc1Cl` [Compound 481], for which the IC50 is above 10 µM in experiment [1] (Homo sapiens, Mast cell); below 10 µM in experiment [2] (setting [3]); below 10 µM in experiment [2] (setting [4]).

`CNC(=O)c1ccc(Nc2nc(Nc3cc(C)cc(C)c3)ncc2F)cc1Cl` [Compound 482]: the IC50 in experiment [1] (Homo sapiens, Mast cell) is above 10 µM; in experiment [2] (setting [3]) it was below 10 µM; in experiment [2] (setting [4]), below 10 µM.

In the case of `Nc1cccc(Nc2nc(Cl)ncc2F)n1` [Compound 486, N4-(2-Aminopyrid-6-yl)-2-chloro-5-fluoro-4-pyrimidineamine], the IC50 in experiment [1] (Homo sapiens, Mast cell) is above 10 µM; in experiment [2] (setting [3]), above 10 µM.

For the molecule `CN(c1ccc2c(c1)OCCO2)c1nc(N)ncc1F` [Compound 487, N4-(3,4-Ethylenedioxyphenyl)-5-fluoro-N4-methyl-2,4-pyrimidinediamine], the IC50 in experiment [1] (Homo sapiens, Mast cell) is above 10 µM; in experiment [2] (setting [3]) it was above 10 µM.

Regarding `COc1cc(OC)cc(N(C)c2nc(Cl)ncc2F)c1` [Compound 488], the IC50 in experiment [1] (Homo sapiens, Mast cell) was above 10 µM; in experiment [2] (setting [3]), below 10 µM.

As to `CCOC(=O)c1cc2cccc(Nc3ncc(F)c(NCCO)n3)c2[nH]1` [Compound 489], the IC50 in experiment [1] (Homo sapiens, Mast cell) was above 10 µM; in experiment [2] (setting [3]), above 10 µM.

`COc1ccc(N(C)c2nc(Cl)ncc2F)c(OC)n1` [Compound 490]: the IC50 was above 10 µM in experiment [1] (Homo sapiens, Mast cell) and above 10 µM in experiment [2] (setting [3]).
